Columns and labels:
astrocytes = experiment: subcellular distribution of immunoreactive TRα2-derived proteins in cultured astrocytes; assay type: cell-based, rat; settings: serum-free medium, treated 20 minutes, 0.1% bovine serum albumin carrier
Excerpt: The subcellular distribution of immunoreactive thyroid hormone receptor-derived proteins in primary brain cell cultures and in cultured astrocytes was examined. Primary brain cell cultures were fixed with 0.4% paraformaldehyde, permeabilized with Triton X-100®, and stained for TRα-derived proteins using specific antisera directed against the unique C-termini of TRα1 and TRα2 proteins, and visualized by staining with a secondary tagged antibody. Consistent with previous observations (Kolodny et al., 1985, Endocrinol. 117: 1848-1857), immunoreactive TRα1 proteins were found in the nuclei of astrocytes and neuronal cells. However, TRα2-derived proteins were not localized to the nucleus in either astrocytes or neurons, but appeared as donut shaped structures located throughout the astrocyte or as discreet punctate signals along neuronal fibers. This latter pattern is diagnostic for synapses in neuronal cultures (Wong et al., 1999, Neurosci. 89:221-233), and is consistent with the presence of ΔTRα2-derived protein in nerve terminals.
The subcellular distribution of immunoreactive TRα2-derived proteins in cultured astrocytes was influenced by the presence of either T4 or rT3. In these experiments astrocytes were grown in serum-free medium, treated for 20 minutes with either […] or rT3, and fixed, permeabilized, and stained as described above. […]

D2 activity = settings: in astrocytes; cited from earlier work
ΔTRα2 = biological target: T1, ΔTRα2 (Rattus norvegicus, UniProt P63059); experiment: [125I]rT3 displacement from cell-free translated ΔTRα2; assay type: binding; settings: cell-free translated polypeptide
T1 sequence (P63059 256-492): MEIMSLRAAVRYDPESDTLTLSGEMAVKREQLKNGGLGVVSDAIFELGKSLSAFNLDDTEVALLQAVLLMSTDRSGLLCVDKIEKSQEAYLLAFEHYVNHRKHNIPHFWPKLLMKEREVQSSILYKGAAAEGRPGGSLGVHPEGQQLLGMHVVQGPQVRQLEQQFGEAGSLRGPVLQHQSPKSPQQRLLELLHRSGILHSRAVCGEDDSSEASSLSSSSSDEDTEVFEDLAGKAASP
Excerpt: (§1) ΔTRα1 and ΔTRα2 polypeptides were synthesized by cell-free translation of appropriate segments of the rat ΔTRα1 and ΔTRα2 cDNA using the coupled transcription-translation kit from Promega® (TNT) according to the manufacturer's instructions.

ΔTRα1 = ΔTRα1 (Rattus norvegicus, UniProt P63059); experiment: [125I]rT3 displacement from cell-free translated ΔTRα1; assay type: binding; settings: cell-free translated polypeptide
Excerpt: as §1

[1] = test system: cerebellar granule neurons; experiment: FM1-43 synaptic vesicle recycling in cultured cerebellar granule neurons, spontaneous activity; assay type: cell-based, rat
Procedure: All of the major components of hormone-induced vesicle trafficking in astrocytes (actin fibers, myosin V (also referred to as myosin 5a and myo 5a), and recycling vesicles) are also present in nerve terminals. Therefore, the effects of thyroid hormone on synaptic vesicle recycling in the presynaptic nerve terminal were examined using myo5a-dependent synaptic vesicle (SV) recycling in cultured cerebellar granule neurons. In these experiments, rat granule neurons were grown on laminin-coated coverslips in the absence or presence of hormone and synaptic vesicle recycling was examined using FM1-43 (a styryl dye used in the art for studying endocytosis and exocytosis, e.g., in synaptic vesicle uptake and release assays; Molecular Probes, Inc. Eugene, Oreg.). […] In contrast, granule neurons grown in thyroid hormone supplemented medium released only 15-20% of the FM1-43 after six minutes of incubation and the hormone specificity of retention of FM1-43 in the “reserve pool” was identical to that determined for myo5a-dependent, endocytosis of p29 vesicles (D2p29 vesicles) in astrocytes.
Cerebellar granule neurons were examined because thyroid hormone has a profound influence on granule neuron viability during cerebellar maturation (Xiao and Nikodem, 1998, Front. Biosci. 3: A52-57; Rabie et al., 1980, Brain Res. 190:409-414), and because of the effects of the loss of myo5a on synaptic vesicle homeostasis (Bridgman, 1999, J. Cell Biol. 146:1045-1060). […]
Experiments were conducted to determine whether synaptic vesicle endocytosis could be altered by the hormone status of the neuron. […] The dye was then removed and the number, intensity and retention of the FM1-43 in random nerve terminals immediately after washing and after six minutes of autonomous activity were analyzed in paraformaldehyde fixed cells (Ryan, 1999, J. Neurosci.: 19:1317-1323). Fluorescence in single nerve terminals (ROI=7×7 pixels) and in an adjacent segment of the neuronal fiber were measured for 40-45 individual nerve terminals. […] Fluorescence intensity was determined using NIH Image software. The total FM1-43 fluorescence in a nerve terminal represents the sum of the dye-loaded synaptic vesicles in the readily releasable and the reserve pools.
By allowing recurrent activity, the FM1-43 filled synaptic vesicles present in the readily releasable pool will be progressively depleted. […] By measuring the total FM1-43 content in random nerve terminals immediately after loading and at 30 second intervals for six minutes of spontaneous activity, the influence of hormones on the distribution of recycling synaptic vesicles between the readily releasable and reserve pools was estimated.

Structure (SMILES): N[C@@H](Cc1cc(I)c(Oc2cc(I)c(O)c(I)c2)c(I)c1)C(=O)O [T4, thyroxine]
- subcellular distribution of TRα2-derived proteins (astrocytes): coalescence of the TRα2-derived proteins around the perinuclear space
- quantity of D2 activity (D2 activity): decreases the quantity of D2 activity
- Kd (ΔTRα2): 0.3 to 1 nM
- Kd (ΔTRα1): 0.3 to 1 nM
- endocytosed FM1-43 retained ([1]; acute treatment, after three minutes of spontaneous stimulation): > 90%
- uptake of FM1-43 ([1]; immediately after loading): No differences
